Measurements as given in ChEMBL document CHEMBL5154873, “Selective degradation of PARP2 by PROTACs via recruiting DCAF16 for triple-negative breast cancer” (Eur J Med Chem, 2022).
Calls of active or inactive are those of the source. The rule behind the calls is not given here.

Key:
[1] = Toxicity in BALB/c mouse xenografted with MDA-MB-231 cells assessed as pathological changes in kidney at 25 mg/kg, ip measured after 21 days by hematoxylin and eosin staining based assay; assay type: organism-based; settings: in vivo, 504 h, time 21 day
[2] = biological target: T1, DDB1- and CUL4-associated factor 16/Poly [ADP-ribose] polymerase 2 (Homo sapiens, UniProt Q9UGN5+Q9NXF7); assay: Protac activity at DCAF16 E3 ligase/PARP2 in human MDA-MB-231 cells assessed as induction of PARP2 degradation in nucleus at 0.5 uM measured after 24 hrs by DAPI staining based immunofluorescence microscopy; assay type: cell-based
Target sequence in this assay (Q9NXF7 whole entry, looked up): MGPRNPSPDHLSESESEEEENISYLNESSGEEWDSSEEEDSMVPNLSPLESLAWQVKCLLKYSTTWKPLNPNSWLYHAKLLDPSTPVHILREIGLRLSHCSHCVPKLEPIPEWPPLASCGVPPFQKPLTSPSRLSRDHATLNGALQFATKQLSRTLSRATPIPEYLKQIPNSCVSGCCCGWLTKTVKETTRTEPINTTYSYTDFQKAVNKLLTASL
Target sequence in this assay (Q9UGN5 whole entry, looked up): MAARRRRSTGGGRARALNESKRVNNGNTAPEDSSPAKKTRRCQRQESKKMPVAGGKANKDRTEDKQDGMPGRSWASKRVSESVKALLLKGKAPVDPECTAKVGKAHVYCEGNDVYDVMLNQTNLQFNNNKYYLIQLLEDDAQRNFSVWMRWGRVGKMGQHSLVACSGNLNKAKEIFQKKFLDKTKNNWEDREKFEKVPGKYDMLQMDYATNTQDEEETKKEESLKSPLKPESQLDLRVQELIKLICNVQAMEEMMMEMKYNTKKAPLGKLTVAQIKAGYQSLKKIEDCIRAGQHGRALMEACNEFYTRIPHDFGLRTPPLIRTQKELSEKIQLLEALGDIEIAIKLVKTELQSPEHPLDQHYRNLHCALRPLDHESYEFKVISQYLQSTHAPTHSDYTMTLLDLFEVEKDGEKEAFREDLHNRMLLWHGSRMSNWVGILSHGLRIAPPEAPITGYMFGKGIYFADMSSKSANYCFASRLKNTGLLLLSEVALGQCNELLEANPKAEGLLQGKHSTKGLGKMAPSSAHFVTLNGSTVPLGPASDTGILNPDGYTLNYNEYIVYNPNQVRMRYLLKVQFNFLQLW

[3] = Toxicity in BALB/c mouse xenografted with MDA-MB-231 cells assessed as pathological changes in heart at 25 mg/kg, ip measured after 21 days by hematoxylin and eosin staining based assay; assay type: organism-based; settings: in vivo, 504 h, time 21 day
MDA-MB-231 [4] = assay: In vivo antitumor activity against human MDA-MB-231 cells xenografted BALB/c mouse assessed as tumor growth inhibition at 25 mg/kg, ip measured after 21 days; assay type: functional; settings: MDA-MB-231, 504 h, time 21 day, read-out: TGI
[5] = Toxicity in BALB/c mouse xenografted with MDA-MB-231 cells assessed as pathological changes in spleen at 25 mg/kg, ip measured after 21 days by hematoxylin and eosin staining based assay; assay type: organism-based; settings: in vivo, 504 h, time 21 day
HepG2 = assay: Antiproliferative activity against human HepG2 cells over expressing DCAF16 assessed as reduction in cell viability incubated for 5 to 10 days by MTT assay; assay type: functional, cell-based; settings: time 5-10 day
[6] = biological target: Poly [ADP-ribose] polymerase 2 (Homo sapiens, UniProt Q9UGN5); assay: Inhibition of PARP2 (unknown origin)
Sequence of Poly [ADP-ribose] polymerase 2 (Q9UGN5 whole entry): as the sequence (Q9UGN5 whole entry, looked up) above

SK-OV-3 = assay: Antiproliferative activity against human SK-OV-3 cells over expressing DCAF16 assessed as reduction in cell viability incubated for 5 to 10 days by MTT assay; assay type: functional, cell-based; settings: time 5-10 day
[7] = Toxicity in BALB/c mouse xenografted with MDA-MB-231 cells assessed as change in body weight at 100 mg/kg, IG measured after 21 days; assay type: organism-based; settings: in vivo, po, 504 h, time 21 day
MDA-MB-231 [8] = assay: Induction of cell cycle arrest in human MDA-MB-231 cells assessed as accumulation at G2/M phase measured after 24 hrs by flow cytometry analysis; assay type: functional, cell-based; settings: dose 0.156-1.25 µM, DDE = dose-dependent effect
[9] = Toxicity in BALB/c mouse xenografted with MDA-MB-231 cells assessed as morbidity at 12.5 to 25 mg/kg, ip measured after 21 days; assay type: organism-based; settings: in vivo, 504 h, dose 12.5-25 mg/kg, time 21 day
[10] = biological target: T1, DDB1- and CUL4-associated factor 16/Poly [ADP-ribose] polymerase 2; assay: Protac activity at DCAF16 E3 ligase/PARP2 in human MDA-MB-231 cells assessed as induction of PARP2 degradation at 0.5 uM preincubated for 2 hrs followed by compound washout measured after 48 hrs by Western blot analysis; assay type: cell-based
Target sequence in this assay (Q9NXF7 whole entry, looked up): as the sequence (Q9NXF7 whole entry, looked up) above
Target sequence in this assay (Q9UGN5 whole entry, looked up): as the sequence (Q9UGN5 whole entry, looked up) above

MDA-MB-231 [11] = assay: Inhibition of colony formation in human MDA-MB-231 cells measured after 14 days by crystal violet staining based analysis; assay type: functional, cell-based; settings: dose 0.312-5 µM, time 14.0 day, DDE = dose-dependent effect
[12] = biological target: T1, DDB1- and CUL4-associated factor 16/Poly [ADP-ribose] polymerase 2; assay: Protac activity at DCAF16 E3 ligase/PARP2 in human MDA-MB-231 cells assessed as induction of PARP2 degradation at 0.5 uM measured after 8 hrs by Western blot analysis; assay type: cell-based
Target sequence in this assay (Q9NXF7 whole entry, looked up): as the sequence (Q9NXF7 whole entry, looked up) above
Target sequence in this assay (Q9UGN5 whole entry, looked up): as the sequence (Q9UGN5 whole entry, looked up) above

[13] = Toxicity in BALB/c mouse xenografted with MDA-MB-231 cells assessed as mortality at 12.5 to 25 mg/kg, ip measured after 21 days; assay type: organism-based; settings: in vivo, 504 h, dose 12.5-25 mg/kg, time 21 day
[14] = Toxicity in BALB/c mouse xenografted with MDA-MB-231 cells assessed as change in body weight at 12.5 to 25 mg/kg, ip measured after 21 days; assay type: organism-based; settings: in vivo, 504 h, dose 12.5-25 mg/kg, time 21 day
MDA-MB-231 [15] = assay: Induction of apoptosis in human wild type MDA-MB-231 cells at 1.25 uM measured after 48 hrs by Annexin V-FITC/PI staining based flow cytometry method; assay type: functional
[16] = biological target: Poly [ADP-ribose] polymerase 1 (Homo sapiens, UniProt P09874); assay: Inhibition of PARP1 (unknown origin)
Sequence of Poly [ADP-ribose] polymerase 1 (P09874 whole entry): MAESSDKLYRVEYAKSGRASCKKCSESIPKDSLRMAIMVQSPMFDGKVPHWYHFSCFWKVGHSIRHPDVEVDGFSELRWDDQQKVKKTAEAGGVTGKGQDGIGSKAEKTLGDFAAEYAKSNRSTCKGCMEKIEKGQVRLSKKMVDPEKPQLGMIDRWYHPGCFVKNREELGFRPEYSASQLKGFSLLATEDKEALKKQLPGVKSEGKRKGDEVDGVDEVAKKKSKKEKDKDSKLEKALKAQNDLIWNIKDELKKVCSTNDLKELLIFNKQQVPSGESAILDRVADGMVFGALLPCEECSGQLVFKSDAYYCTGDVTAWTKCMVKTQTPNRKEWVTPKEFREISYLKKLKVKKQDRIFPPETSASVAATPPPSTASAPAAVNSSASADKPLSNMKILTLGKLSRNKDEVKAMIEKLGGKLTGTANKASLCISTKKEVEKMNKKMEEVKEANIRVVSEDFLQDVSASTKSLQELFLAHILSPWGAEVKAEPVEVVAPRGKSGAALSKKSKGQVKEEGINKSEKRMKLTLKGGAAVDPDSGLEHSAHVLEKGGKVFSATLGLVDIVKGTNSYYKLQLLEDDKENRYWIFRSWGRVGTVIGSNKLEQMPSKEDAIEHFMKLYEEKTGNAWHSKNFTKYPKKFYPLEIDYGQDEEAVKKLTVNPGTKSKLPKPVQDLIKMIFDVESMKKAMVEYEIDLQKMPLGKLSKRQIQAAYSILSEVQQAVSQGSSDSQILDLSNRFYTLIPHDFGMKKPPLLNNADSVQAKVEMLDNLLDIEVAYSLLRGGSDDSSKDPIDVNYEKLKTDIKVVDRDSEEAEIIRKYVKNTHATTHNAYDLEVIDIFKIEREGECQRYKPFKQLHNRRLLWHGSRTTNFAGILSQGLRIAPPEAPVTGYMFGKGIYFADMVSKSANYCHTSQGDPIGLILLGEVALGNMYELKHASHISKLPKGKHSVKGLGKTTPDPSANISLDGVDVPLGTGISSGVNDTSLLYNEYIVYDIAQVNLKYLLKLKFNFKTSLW

[17] = Toxicity in BALB/c mouse xenografted with MDA-MB-231 cells assessed as pathological changes in lung at 25 mg/kg, ip measured after 21 days by hematoxylin and eosin staining based assay; assay type: organism-based; settings: in vivo, 504 h, time 21 day
MDA-MB-468 [18] = assay: Antiproliferative activity against human PTEN -/- MDA-MB-468 cells assessed as reduction in cell viability incubated for 5 to 10 days by MTT assay; assay type: functional, cell-based
[19] = Toxicity in BALB/c mouse xenografted with MDA-MB-231 cells assessed as mortality at 100 mg/kg, IG measured after 21 days; assay type: organism-based; settings: in vivo, po, 504 h, time 21 day
MDA-MB-468 [20] = assay: Potency index, ratio of IC50 of Olaparib to IC50 of test compound antiproliferative activity against human PTEN -/- MDA-MB-468 cells assessed as reduction in cell viability incubated for 5 to 10 days by MTT assay; assay type: functional; settings: time 5-10 day
MDA-MB-231 [21] = assay: In vivo antitumor activity against human MDA-MB-231 cells xenografted BALB/c mouse assessed as tumor growth inhibition at 12.5 mg/kg, ip measured after 21 days; assay type: functional; settings: MDA-MB-231, 504 h, time 21 day, read-out: TGI
NCI-H2228 = assay: Antiproliferative activity against human H2228 cells over expressing DCAF16 assessed as reduction in cell viability incubated for 5 to 10 days by MTT assay; assay type: functional, cell-based; settings: time 5-10 day
MV4-11 = assay: Antiproliferative activity against human MV4-11 cells over expressing DCAF16 assessed as reduction in cell viability incubated for 5 to 10 days by MTT assay; assay type: functional, cell-based; settings: time 5-10 day
MDA-MB-231 [22] = assay: Potency index, ratio of IC50 of Olaparib to IC50 of test compound antiproliferative activity against wild type human MDA-MB-231 cells assessed as reduction in cell viability incubated for 5 to 10 days by MTT assay; assay type: functional; settings: time 5-10 day
NCI-H3122 = assay: Antiproliferative activity against human H3122 cells over expressing DCAF16 assessed as reduction in cell viability incubated for 5 to 10 days by MTT assay; assay type: functional, cell-based; settings: time 5-10 day
MDA-MB-231 [23] = assay: Antitumor activity against human MDA-MB-231 cells xenografted BALB/c mouse assessed as reduction in tumor weight at 25 mg/kg, ip measured after 21 days; assay type: functional, organism-based; settings: time 21.0 day
CAPAN-1 = assay: Antiproliferative activity against human BRCA2 -/- CAPAN-1 cells assessed as reduction in cell viability incubated for 5 to 10 days by MTT assay; assay type: functional, cell-based
[24] = Toxicity in BALB/c mouse xenografted with MDA-MB-231 cells assessed as morbidity at 100 mg/kg, IG measured after 21 days; assay type: organism-based; settings: in vivo, po, 504 h, time 21 day
MDA-MB-231 [25] = assay: Antiproliferative activity against wild type human MDA-MB-231 cells assessed as reduction in cell viability incubated for 5 to 10 days by MTT assay; assay type: functional, cell-based
SW-620 = assay: Antiproliferative activity against human SW-620 cells over expressing DCAF16 assessed as reduction in cell viability incubated for 5 to 10 days by MTT assay; assay type: functional, cell-based; settings: time 5-10 day
[26] = Toxicity in BALB/c mouse xenografted with MDA-MB-231 cells assessed as pathological changes in liver at 25 mg/kg, ip measured after 21 days by hematoxylin and eosin staining based assay; assay type: organism-based; settings: in vivo, 504 h, time 21 day
[27] = biological target: T1, DDB1- and CUL4-associated factor 16/Poly [ADP-ribose] polymerase 2; assay: Protac activity at DCAF16 E3 ligase/PARP2 in human MDA-MB-231 cells assessed as induction of PARP2 degradation measured after 24 hrs by Western blot analysis; assay type: cell-based
Target sequence in this assay (Q9UGN5 whole entry): as the sequence (Q9UGN5 whole entry, looked up) above
Target sequence in this assay (Q9NXF7 whole entry): as the sequence (Q9NXF7 whole entry, looked up) above

HeLa = assay: Antiproliferative activity against human HeLa cells over expressing DCAF16 assessed as reduction in cell viability incubated for 5 to 10 days by MTT assay; assay type: functional, cell-based; settings: time 5-10 day
MDA-MB-231 [28] = assay: In vivo antitumor activity against human MDA-MB-231 cells xenografted BALB/c mouse assessed as tumor growth inhibition at 100 mg/kg, IG measured after 21 days; assay type: functional; settings: MDA-MB-231, po, 504 h, time 21 day, read-out: TGI
[29] = biological target: T1, DDB1- and CUL4-associated factor 16/Poly [ADP-ribose] polymerase 2; assay: Protac activity at DCAF16 E3 ligase/PARP2 in human MDA-MB-231 cells assessed as induction of PARP2 degradation at 1 uM measured after 24 hrs by Western blot analysis; assay type: cell-based
Target sequence in this assay (Q9NXF7 whole entry, looked up): as above
Target sequence in this assay (Q9UGN5 whole entry, looked up): as the sequence (Q9UGN5 whole entry, looked up) above

[30] = biological target: T1, DDB1- and CUL4-associated factor 16/Poly [ADP-ribose] polymerase 2; assay: Protac activity at DCAF16 E3 ligase/PARP2 in human MDA-MB-231 cells assessed as maximum degradation of PARP2 measured after 24 hrs by Western blot analysis relative to control; assay type: cell-based
Target sequence in this assay (Q9NXF7 whole entry, looked up): as the sequence (Q9NXF7 whole entry, looked up) above
Target sequence in this assay (Q9UGN5 whole entry, looked up): as the sequence (Q9UGN5 whole entry, looked up) above

MDA-MB-436 [31] = assay: Antiproliferative activity against human BRCA1 -/- MDA-MB-436 cells assessed as reduction in cell viability incubated for 5 to 10 days by MTT assay; assay type: functional, cell-based
MDA-MB-436 [32] = assay: Induction of cell cycle arrest in human (BRAC1-/-) MDA-MB-436 cells assessed as accumulation at G2/M phase measured after 48 hrs by flow cytometry analysis; assay type: functional, cell-based; settings: dose 0.312-2.5 µM, DDE = dose-dependent effect
L02 = assay: Cytotoxicity against human L02 cells; assay type: toxicity, cell-based

## O=C(COc1ccc2c(c1)CCCN2C(=O)CCl)NCCCCCCCCCC(=O)N1CCN(C(=O)c2cc(Cc3n[nH]c(=O)c4ccccc34)ccc2F)CC1
[1]
  Activity: Non-Toxic
[2]
  Activity: Active
[3]
  Activity: Non-Toxic
MDA-MB-231 [4]
  inhibition in vivo at 25 mg/kg: 98.3%
[5]
  Activity: Non-Toxic
HepG2
  inhibition: Active
[6]
  IC50: 0.32 nM
SK-OV-3
  inhibition: Active
[7]
  Activity: Non-Toxic
MDA-MB-231 [8]
  Activity: Dde
[9]
  Activity: Non-Toxic
[10]
  Activity: Active
MDA-MB-231 [11]
  inhibition: Dde
[12]
  Activity: Active
[13]
  Activity: Non-Toxic
[14]
  Activity: Non-Toxic
MDA-MB-231 [15]
  Activity: 20%
[16]
  IC50: 2.74 nM
[17]
  Activity: Non-Toxic
MDA-MB-468 [18]
  IC50: 690 nM
[19]
  Activity: Non-Toxic
MDA-MB-468 [20]
  Ratio IC50: 6
MDA-MB-231 [21]
  inhibition in vivo at 12.5 mg/kg: 82.9%
NCI-H2228
  inhibition: Active
MV4-11
  inhibition: Active
MDA-MB-231 [22]
  Ratio IC50: 6
NCI-H3122
  inhibition: Active
MDA-MB-231 [23]
  Activity: Active
CAPAN-1
  IC50: 61 nM
[24]
  Activity: Non-Toxic
MDA-MB-231 [25]
  IC50: 530 nM
SW-620
  inhibition: Active
[26]
  Activity: Non-Toxic
[27]
  DC50: 2000 nM
HeLa
  inhibition: Active
MDA-MB-231 [28]
  inhibition in vivo at 100 mg/kg: 63.5%
[29]
  Activity: Active
[30]
  Activity: > 92%
MDA-MB-436 [31]
  IC50: 26 nM
MDA-MB-436 [32]
  Activity: Dde
L02
  Activity: Non-Toxic
